Measurements reported in US20240360107A1, “AN EIF4A INHIBITOR WITH A NOVEL MECHANISM OF ACTION” (ARIZONA BOARD OF REGENTS ON BEHALF OF THE UNIVERSITY OF …, priority 2021, published 2024).
Entries after “also recorded” stand apart in the source; their conditions may differ.

Assays:
[1] = test system: cap-dependent translation of firefly luciferase; experiment: in vitro translation of bicistronic luciferase reporter in rabbit reticulocyte lysate, firefly luciferase; format: biochemical; settings: Cycloheximide 600 μM, Silvestrol 100 nM
Text: A bicistronic luciferase reporter ([…]) (FIG. 7B, top) was programmed into rabbit reticulocyte lysates, cellular extracts capable of performing both cap-dependent and Hepatitis C virus (HCV) internal ribosomal entry site (IRES)-mediated translation. eIF4A is the enzymatic driver of cap-dependent translation and is not involved in translation through HCV IRES. Compounds that inhibit eIF4A should inhibit cap-dependent translation of firefly (FF) luciferase while leaving IRES-mediated translation of Renilla (Ren) luciferase relatively unaffected. The inhibitory activities of cycloheximide, silvestrol, and 28 were assessed in this in vitro translation assay (FIG. 7B, bottom). […] The ability of compound 28 to preferentially target cap-dependent translation in a similar manner as silvestrol provides promising evidence that 28 inhibits eIF4A and not other proteins in the general translational machinery.
The dual-luciferase reporter plasmid pSP/(CAG)33/FF/HCV/Ren-pA51 was linearized with BamHI and subsequently in vitro transcribed using the Promega mMessage mMachine SP6 transcription kit, according to manufacturer's specifications. RNA was precipitated with LiCI and resuspended in H2O for use in in vitro translation experiments. Rabbit reticulocyte lysate (RRL) (nuclease-treated, Promega) was used to assess inhibitory effects of 28 on translation of the dual-reporter. Briefly, a reaction consisting of 50% RRL, 30 ng/μL reporter RNA, 10 μM Amino Acid Mixture Minus Methionine, 10 μM Amino Acid Mixture Minus Leucine, […], 1 U/μL RNAseOut (Thermo), and drug (final DMSO concentration 1%) were incubated at 30° C. for 90 minutes. The reaction was quenched with 50 μL 1× Passive Lysis Buffer (Promega), 10 μL of the mix was transferred to a 96-well white plate (Cellstar), and the Dual-Reporter Luciferase Assay System (Promega) was used to generate luminescence according to the manufacturer's instructions. Luminescence was detected using a plate reader (BioTek HT Synergy).

eIF4A = eIF4A (Homo sapiens, UniProt P60842); experiment: Cellular Thermal Shift Assay (CETSA) in A549 cells; format: cell-based; design: endogenous in cells; host or cells: A549 cells; settings: 90 min, 55° C., silvestrol 100 nM
Sequence of eIF4A (P60842 2-406): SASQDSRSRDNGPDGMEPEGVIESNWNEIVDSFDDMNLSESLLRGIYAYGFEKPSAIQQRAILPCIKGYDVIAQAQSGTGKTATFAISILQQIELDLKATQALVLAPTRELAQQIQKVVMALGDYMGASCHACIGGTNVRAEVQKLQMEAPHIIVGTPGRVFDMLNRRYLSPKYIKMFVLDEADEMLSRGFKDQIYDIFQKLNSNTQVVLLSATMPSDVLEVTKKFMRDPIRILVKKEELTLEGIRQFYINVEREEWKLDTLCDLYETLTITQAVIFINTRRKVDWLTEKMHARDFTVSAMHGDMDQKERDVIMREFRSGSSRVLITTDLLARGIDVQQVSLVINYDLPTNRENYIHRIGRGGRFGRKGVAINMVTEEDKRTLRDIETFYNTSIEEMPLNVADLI
Protocol: In CETSA, thermal stability of a protein is assessed by heating cells and then separating insoluble, aggregated, or denatured proteins from soluble proteins through supernatant/pellet fractionation. Levels of the protein of interest (eIF4A) remaining in the soluble fraction are then measured by western blot. The principle of CETSA is similar to differential scanning fluorimetry (DSF), in that thermal stability and solubility of a protein increases upon binding a ligand.
Cellular Thermal Shift Assay (CETSA). A549 cells were seeded into wells in 6-well plates and on the following day were exposed to 28 or silvestrol (100 nM) for 90 min. Cells were harvested, resuspended in 50 μL DMEM, and dispensed into thin-walled PCR tubes. Cells were subjected to 3 min of heat at 55° C. in a thermocycler (miniPCR). After heating, cells were left to cool for 3 min and then snap-frozen on dry ice. Cells were subjected to 3 rapid freeze thaws with 15 seconds of vortexing after each thaw. After the first thaw, 1 μL of a dissolved Pierce protease inhibitor tablet (ThermoFisher—A32963) was added to the cell lysate. Cell lysates were centrifuged at 20,000×g for 20 min. […] All immunoblot images were taken using the Azure 600 imaging system (Azure Biosystems) and analyzed using ImageJ 1.51s (NIH). […]

Compound: CCCCc1ccc(-c2ccc(-c3cc(C(=O)O)c4cc([N+](=O)[O-])ccc4n3)o2)cc1 [Compound 28, 2-(5-(4-butylphenyl)furan-2-yl)-6-nitroquinoline-4-carboxylic acid]
- effect on cap-dependent translation (firefly luciferase) [1]: inhibit cap-dependent translation of firefly luciferase; also recorded: inhibits cap-dependent translation
- thermal stability of eIF4A in cells (CETSA) (eIF4A): dose-dependent increase in thermal stability of eIF4A; also recorded: engages eIF4A in cells
